According to US20250090996A1, “ACID GAS REMOVAL METHOD, ACID GAS ABSORBENT, AND ACID GAS REMOVAL APPARATUS” (KABUSHIKI KAISHA TOSHIBA, priority 2023, published 2025):

Assays:
[1] = Phase state of amine/water mixture before and after carbon dioxide absorption; assay type: physicochemical; conditions: for phase state after absorbing carbon dioxide: mixture with water 50:50 after CO2:N2=1:9 bubbling; for phase state when blended with water: ratio 50:50, before carbon dioxide absorption, organic upper phase, aqueous lower phase
Description: Here, in the present embodiment, the “state in which the organic phase and the aqueous phase are phase-separated” means that, for example, a mixture of water and a liquid amine has a relationship in which a state in which the organic phase and the aqueous phase are phase-separated, in other words, a boundary between the organic phase and the aqueous phase can be visually confirmed. Here, in the present embodiment, the organic phase is a phase containing the liquid amine compound as a main component in a state of being phase-separated, and is also a phase containing a high concentration of the liquid amine compound in a state of being separated from the acid gas. The aqueous phase is a phase containing water as a main component in a state of being phase-separated. At a high carbon dioxide concentration, the acid gas absorbent has an increased amount of the liquid amine compound to be dissolved in water, and the liquid amine compound is dissolved in an aqueous solution. In the acid gas absorbent, the organic phase and the aqueous phase are not phase-separated in this state (the acid gas absorbent has one phase). At a low acid gas concentration, the acid gas absorbent is decreased in solubility of the liquid amine compound in water, and is phase-separated into an aqueous phase and an organic phase containing a high concentration of the liquid amine compound. When the acid gas absorbent is phase-separated, the organic phase and the aqueous phase typically form complete two phases. However, in the present embodiment, even when it is not completely phase-separated, the organic phase and the aqueous phase are referred to as “two phases” in a case where a boundary between the phases can be confirmed.
Hereinafter, Examples of the embodiment will be described. In the following Examples, conditions before heating the acid gas absorbent were 25° C. and atmospheric pressure.
(§1) When a compound (a-1) of General Formula (a) wherein R^1 and R^3 are 1-ethylpropyl groups and R^2 is C3 linear alkyl and water were blended at a mass ratio of 50:50, two phases of an organic phase (amine compound phase) as an upper phase and an aqueous phase as a lower phase were formed. […] The temperature in the column was changed in a range of 60° C. to 70° C., and an inert gas was caused to flow at 50 ml/min. […] Here, the amount of carbon dioxide saturated and absorbed is a value obtained by measuring the amount of inorganic carbon in the acid gas absorbent with an infrared gas concentration measuring apparatus. The amount of this compound dissolved was 18,000 mg/L at 25° C. and under atmospheric pressure. The amount of the compound dissolved was determined by sampling the lower phase of the two phases fractionated, measuring the total organic carbon concentration with a total organic carbon meter TOC-L (trade name) manufactured by Shimadzu Corporation, and converting it into the amount of amine dissolved from the chemical formula of the compound (a-1).

[2] = Amount of compound dissolved in water (total organic carbon of lower aqueous phase); assay type: physicochemical; conditions: 25° C., atmospheric pressure, converted from total organic carbon of lower phase
Description: An acid gas absorbent according to the embodiment contains an amine compound and water, as main agents for absorbing an acid gas. The amine compound used here is a liquid amine compound having a secondary amine structure. An acid gas remover contains a mixture of the liquid amine compound and water, and an amount of a salt to be dissolved in water is larger than an amount of the liquid amine compound itself to be dissolved in water, the salt being formed from the liquid amine compound and the acid gas. Here, the liquid amine compound is an amine compound that is liquid at 25° C. under atmospheric pressure. An amount of the liquid amine compound to be dissolved at room temperature is generally small, and, for example, an amount of the liquid amine compound to be dissolved in water at 25° C. is 50,000 mg/L or less. Upon contact of the liquid amine compound with the acid gas, a salt is formed, and is ionized when water coexists, to increase the dissolved amount. The amount of such a salt to be dissolved is, for example, 2 times or more, preferably 5 times or more, and more preferably 10 times or more the amount of the liquid amine to be dissolved as a base at 25° C. In the present embodiment, the dissolved amount (mg/L) is a mass (mg) of the liquid amine based on a total volume (L) of water and the liquid amine compound.
as §1

[3] = Regeneration (carbon dioxide release) on heated molecular sieve 4A column; conditions: column 60° C. to 70° C., inert gas 50 ml/min, fractionated
Experimental: as §1

[4] = S concentration of aqueous phase after adding sulfuric acid (ICP); assay type: physicochemical; conditions: 1 ml of 1 mol/l sulfuric acid added to 30 ml of mixture with water (volume ratio 50:50), after stirring
Experimental: When the compound (a-1) and water were blended at a volume ratio of 50:50, two phases of an organic phase as an upper phase and an aqueous phase as a lower phase were formed. One (1) ml of 1 mol/1 sulfuric acid was added to 30 ml of the mixture, and, after stirring, the S concentration of the aqueous phase was measured by ICP. As a result, the S concentration was 17.6 mg-S/L (Reference Example 1).

[5] = Phase state of amine/water mixture before and after carbon dioxide absorption; assay type: physicochemical; conditions: volume ratio 50:50

| phase state after absorbing carbon dioxide [1] | phase state when blended with water [1] | amount of compound dissolved [2] | phase state of mixture after passing through column [3] | S concentration of the aqueous phase [4] [mg-S/L] | phase state when blended with water [5] | Compound |
| --- | --- | --- | --- | --- | --- | --- |
| formed one phase | two phases | 18,000 mg/L | two phases were formed | 17.6 | two phases | CCC(CC)NCCCNC(CC)CC [compound (a-1)] |
| formed one phase | two phases | 11,000 mg/L | two phases were formed |  |  | CC(C)CC(C)NCCCNCCCNC(C)CC(C)C (stereo not shown) [compound (b-3)] |
| formed one phase | two phases | 4,000 mg/L | two phases were formed |  |  | CC(C)CC(C)NCCCN(C)CCCNC(C)CC(C)C (stereo not shown) [compound (b-2)] |

More lines, now with the values behind:

| Compound | phase state after absorbing carbon dioxide [1] | phase state when blended with water [1] | amount of compound dissolved [2] | phase state of mixture after passing through column [3] | S concentration of the aqueous phase [4] [mg-S/L] | phase state when blended with water [5] |
| --- | --- | --- | --- | --- | --- | --- |
| CCC(CC)NCCCN(C)CCCNC(CC)CC [compound (b-1)] | formed one phase | two phases | 22,000 mg/L | two phases were formed |  |  |
| CC(C)N(C)C(C)C [diisopropylmethylamine, reference compound] |  | two phases |  |  |  |  |
